The record followed here is patent EP0565593B1, “REDUCING PESTICIDAL INTERACTIONS IN CROPS” (priority 1990, dated 1992).

The test system of assay [1] is Corn. Put plainly: Greenhouse test Procedure II: herbicide, insecticide and antidote incorporated in cover layer (Example 4; Table 4). As to conditions: 3 weeks. It is filed as in vivo. The protocol: (§1) Containers were filled and compacted with a fumigated silt loam top soil to a depth of about 1.3 cm from the top of the container. A first container was designated as an untreated control, a second container was designated as a herbicide control, and a third container was designated as a herbicide + antidote test container. Each of the containers was seeded with a crop species. A measured amount of herbicide dispersed or dissolved in acetone was applied to a measured quantity of soil. To this same quantity of soil treated with herbicide, there was added a measured amount of antidote dispersed or dissolved in acetone. The quantity of soil treated with the herbicide and antidote was thoroughly mixed to incorporate the herbicide and antidote in the soil uniformly. The seed bed in the third container of soil was covered with the soil treated with the herbicide and antidote and the container was leveled. For each test series, the seed beds of the first and second containers were likewise covered by soil layers. the cover layer of the first container was not treated with herbicide or antidote.
(§2) This procedure is the same as Procedure I, but modified in the manner that after incorporation of the chemicals (herbicide, antidote and insecticide), the containers with the covered seedbed were treated with an initial overhead irrigation equivalent to 0.6 cm rainfall, then subsequently sub-irrigated as required on greenhouse benches.
(§3) The procedure used in this test was Procedure No. 2 above. Formulations of herbicide, insecticide and antidote were applied via track sprayer sequentially onto cover layers, incorporated into the soil which was spread over seedbeds, then irrigated from above with 0.6 cm water. Observations were made three (3) weeks after treatment.

For assay [2], the system named is VELE (velvetleaf). The assay is described as follows: Greenhouse test Procedure II (Example 4; Table 4). In kind it is in vivo, Abutilon theophrasti. The following applies: 3 weeks. The protocol: as §1, §2, §3
Assay [3] deals with Velvetleaf (VELE). Put plainly: whole plant or invertebrate. In kind it is in vivo, Abutilon theophrasti. The following applies: for inhibition at 140 g/ha: Abutilon theophrasti, iv, Herbicide No. 18 0.14 Kg/Ha, all PPI.
The test system of assay [4] is SJCA. Put plainly: Greenhouse test Procedure IV: herbicide, biocide and antidote PPI, weed SJCA (Examples 53-55; Tables 52-54). The following applies: for inhibition at 140 g/ha: Herbicide No. 18 0.14 Kg/Ha, all PPI. In kind it is in vivo. From the text: The test in this example paralleled that in Example 51, except the procedure was according to Procedure IV above and the herbicides used were No. 1 (MON-12000); No. 21 (XRD-498) and, again, No. 18 (PURSUIT); the biocide was, again, MOCAP®. Observations were taken thirteen (13) days after PPI treatment with biocide and antidote.
This test was identical to that in Example 52, except for use of a different biocide, DIAZINON (Biocide No. 5, a nematicide and soil insecticide).
This test was also identical to that in the preceding two examples, except that the biocide was malathion (No. 7, an insecticide).
This test was identical to the preceding ones, except the biocide was DPX-43898 (No. 6, active ingredient in FORTRESS® insecticide, a soil insecticide). Also, the observation time was fourteen (14) days after PPI initiation.

The test system of assay [5] is Corn.
Assay [6] deals with Shattercane (SHCA). In kind it is in vivo.
The test system of assay [7] is Velvetleaf (VELE). In kind it is in vivo, Abutilon theophrasti.
For assay [8], the system named is Giant foxtail (GIFT). The assay is described as follows: whole plant or invertebrate. It is filed as in vivo. As to conditions: Setaria faberi, iv, 312 h, Table 51; Herbicide No. 18 0.14 Kg/Ha; where applied Biocide No. 8 8.96 kg/Ha and antidote 4.48 Kg/Ha; all PPI; observed 13 days after treatment.
Assay [9] has as its system Corn. This is another data set of the same source.
The test system of assay [10] is Corn. The assay is described as follows: whole plant or invertebrate. As to conditions: Zea mays, iv, Herbicide No. 18 0.14 Kg/Ha, all PPI.
Setting [11] is: Insecticide 2 3.36 + Herbicide 4 0.07 kg/Ha.
Where [12] appears, read: Insecticide 2 3.36 + Herbicide 4 0.14 kg/Ha.
The mark [13] stands for this setting: Table 52, Biocide No. 5 alone 8.96 kg/Ha PPI, observed 13 days after treatment.
The mark [14] stands for this setting: Table 54, Biocide No. 6 alone 8.96 kg/Ha PPI, observed 14 days after PPI initiation.
[15] abbreviates: Table 53, Biocide No. 7 alone 8.96 kg/Ha PPI, observed 13 days after treatment.
Where [16] appears, read: Insecticide 2 3.36 + Herbicide 5 0.07 kg/Ha.
[17] abbreviates: Insecticide 2 3.36 + Herbicide 5 0.14 kg/Ha.
The mark [18] stands for this setting: Insecticide 2 3.36 + Herbicide 6 0.07 kg/Ha.
Where [19] appears, read: Insecticide 2 3.36 + Herbicide 6 0.14 kg/Ha.
Setting [20] is: Herbicide No. 18 0.0175 Kg/Ha POE alone, Table 17.
Where [21] appears, read: Herbicide No. 18 0.0175 Kg/Ha POE alone, Table 18.
Setting [22] is: Herbicide No. 18 alone, POE 5 DAP, observed 13 DAP.
The mark [23] stands for this setting: no antidote, […], observed 10 days after herbicide application.
Where [24] appears, read: 312 h, Table 52, where applied Biocide No. 5 8.96 kg/Ha and antidote 4.48 Kg/Ha, observed 13 days after treatment.
Where [25] appears, read: 336 h, Table 54, where applied Biocide No. 6 8.96 kg/Ha and antidote 4.48 Kg/Ha, observed 14 days after PPI initiation.

Like-named read-outs stand apart in the source and are kept apart here.

Turning to “2-Thiophenecarboxylic acid, 3-[[[[(4,6-dimethoxy-1,3,5-triazin-2-yl)amino]carbonyl]amino]sulfonyl]-, methyl ester [Herbicide No. 4]”, the “% Injury Corn” value in assay [1] (Herbicide 4 0.07 kg/Ha) is listed as 15%; in assay [1] (Herbicide 4 0.14 kg/Ha) it was 38%; in assay [1] (setting [11]), 83%; in [1] (setting [12]), 80%. In addition, the “% Injury VELE” value in assay [2] (Herbicide 4 0.07 kg/Ha) is 10%; in [2] (Herbicide 4 0.14 kg/Ha), 52%; in [2] (setting [11]) it was 55%; in assay [2] (setting [12]) it was 5%.

As for `CCOP(=S)(OCC)Oc1cc(C)nc(C(C)C)n1` [Biocide No. 5, O,O-Diethyl (-(2-isopropyl-4-methyl-6-pyrimidinyl phosphorothioate, reference compound], the “% Inhibition VELE” value in [3] (setting [13]) is reported as 25%. The “% Inhibition SJCA” value in assay [4] (setting [13]) is recorded as 50%. For the same compound, the “% Inhibition Corn” value in [5] (setting [13]) came out at 0%.

Regarding `CCOP(=S)(OCC)OC(Cl)C(Cl)(Cl)Cl` (centres unmarked) [Biocide No. 6, O,O-Diethyl-O-1,2,2,2-tetrachloroethyl phosphorothioate, reference compound], the “% Inhibition VELE” value in [3] (setting [14]) is reported as 0%. In assay [4] (setting [14]), the “% Inhibition SJCA” value is reported as 0%. In [5] (setting [14]), the “% Inhibition Corn” value stood at 0%.

Regarding `CCOC(=O)CC(SP(=S)(OC)OC)C(=O)OCC` (centres unmarked) [Biocide No. 7, O,O-Dimethyl phosphorothioate of diethyl mercaptosuccinate, reference compound], the “% Inhibition VELE” value in assay [3] (setting [15]) is 0%. The “% Inhibition SJCA” value in assay [4] (setting [15]) amounted to 0%. For the same compound, the “% Inhibition Corn” value in assay [5] (setting [15]) came to 0%.

As to `CCOC(=O)c1ccccc1S(=O)(=O)NC(=O)Nc1nc(Cl)cc(OC)n1` [Herbicide No. 5, Benzoic acid, 2-[[[[(4-chloro-6-methoxy-2-pyrimidin-2-yl)amino]carbonyl]amino]sulfonyl]ethyl ester], the “% Injury Corn” value in assay [1] (Herbicide 5 0.07 kg/Ha) stood at 88%; in assay [1] (Herbicide 5 0.14 kg/Ha), 92%; in [1] (setting [16]), 95%; in assay [1] (setting [17]), 98%. The “% Injury VELE” value was determined as 57% in assay [2] (Herbicide 5 0.07 kg/Ha), 77% in [2] (Herbicide 5 0.14 kg/Ha), 83% in [2] (setting [16]) and 70% in [2] (setting [17]).

Consider `CCc1cnc(C2=NC(C)(C(C)C)C(=O)N2)c(C(=O)O)c1` (centres unmarked) [Herbicide No. 6, 3-Pyridinecarboxylic acid, 2-[4,5-dihydro-4-methyl-4-(1-methylethyl)-5-oxo-1H-imidazol-2-yl]5-ethyl], for which the “% Injury Corn” value in assay [1] (Herbicide 6 0.07 kg/Ha) was found to be 2%; in [1] (Herbicide 6 0.14 kg/Ha), 23%; in [1] (setting [18]), 65%; in [1] (setting [19]) it was 43%. Moreover, the “% Injury VELE” value came to 33% in assay [2] (Herbicide 6 0.07 kg/Ha), 32% in [2] (Herbicide 6 0.14 kg/Ha), 30% in [2] (setting [18]) and 20% in assay [2] (setting [19]).

The inhibition is the change of the read-out against control, counted positive when it falls. On to `CC(C)C1(C)N=C(c2ncccc2C(=O)O)NC1=O` (centres unmarked) [Herbicide No. 18, 3-Pyridinecarboxylic acid, 2-[4,5-dihydro-4-methyl-4-(1-methylethyl)-5-oxo-1H-imidazol-2-yl]-, reference compound], for which the “% Inhibition SHCA” value amounted to 65% in assay [6] (setting [20]); 45% in [6] (setting [21]); 20% in [6] (setting [22]); 40% in assay [6] (Table 50, Herbicide No. 18 0.017 Kg/Ha POE, where applied Biocide No. 8 8.96 kg/Ha and antidote 4.48 Kg/Ha PPI, observed 9 days after POE); 60% in assay [6] (setting [23]). The “% Inhibition VELE” value in [7] (setting [20]) is 80%; in assay [7] (setting [21]), 85%; in [7] (in vivo), 80%; in assay [7] (setting [23]), 80%. Moreover, the inhibition at 140 g/ha in assay [8] was 75%; in assay [3] (312 h, Table 51, where applied Biocide No. 8 8.96 kg/Ha and antidote 4.48 Kg/Ha, observed 13 days after treatment), 65%; in assay [3] (setting [24]) it was 75%; in assay [3] (setting [25]), 70%; in assay [4] (setting [24]), 75%; in assay [4] (312 h, Table 53, where applied Biocide No. 7 8.96 kg/Ha and antidote 4.48 Kg/Ha, observed 13 days after treatment), 70%. Also, the inhibition at 140 g/ha in [4] (setting [25]) was 75%; in assay [10] (312 h, read-out: % Inhibition Corn, Table 51, where applied Biocide No. 8 8.96 kg/Ha and antidote 4.48 Kg/Ha, observed 13 days after treatment), 15%; in [10] (312 h, read-out: % Inhibition Corn, Table 52, where applied Biocide No. 5 8.96 kg/Ha and antidote 4.48 Kg/Ha, observed 13 days after treatment), 10%; in [10] (312 h, read-out: % Inhibition Corn, Table 53, where applied Biocide No. 7 8.96 kg/Ha and antidote 4.48 Kg/Ha, observed 13 days after treatment), 15%; in assay [10] (336 h, read-out: % Inhibition Corn, Table 54, where applied Biocide No. 6 8.96 kg/Ha and antidote 4.48 Kg/Ha, observed 14 days after PPI initiation), 15%. The results for the “% Inhibition Corn” value in assay [9] (setting [20]), in assay [9] (setting [21]) and in assay [9] (setting [22]) were 15%, 10% and 5%, respectively.
